Experimental data: article PMC7594721, “Synthesis and biological activity of 2-cyanoacrylamide derivatives tethered to imidazopyridine as TAK1 inhibitors” (Journal of Enzyme Inhibition and Medicinal Chemistry, 2020)

Experiments:
TAK1 = target: T1, TAK1 (Homo sapiens, UniProt O43318); experiment: TAK1 LanthaScreen Eu Kinase Binding Assay (Invitrogen; Table 1 calls it TAK1 enzymatic assay); details: for TAK1 potency, SAR result in words: Table 1 SAR discussion; for IC50: read-out: IC50 against TAK1
T1 construct: purchased Invitrogen (Thermo Fisher Scientific)
T1 sequence (O43318 with tags, fused parts or gaps limits assumed): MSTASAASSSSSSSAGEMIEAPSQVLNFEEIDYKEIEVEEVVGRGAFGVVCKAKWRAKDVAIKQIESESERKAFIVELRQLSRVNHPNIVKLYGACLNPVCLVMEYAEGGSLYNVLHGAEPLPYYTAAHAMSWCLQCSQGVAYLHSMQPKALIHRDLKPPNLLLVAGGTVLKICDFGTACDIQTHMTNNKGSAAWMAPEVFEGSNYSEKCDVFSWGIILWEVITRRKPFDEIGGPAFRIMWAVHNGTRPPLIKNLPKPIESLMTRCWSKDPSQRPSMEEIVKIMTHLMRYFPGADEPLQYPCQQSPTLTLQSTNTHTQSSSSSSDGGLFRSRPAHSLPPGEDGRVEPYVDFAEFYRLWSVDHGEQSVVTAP
Experimental: Kinase assays were performed by Invitrogen (now Thermo Fisher Scientific, Waltham, MA) or Reaction Biology Corp. (Malvern, PA). Inhibitory activity of compounds for TAK1 was evaluated using LanthaScreen® Eu Kinase Binding Assay (Invitrogen, Waltham, MA). The kinase profile of compound 13h was determined by the kinase HotSpot Profiling service of Reaction Biology Corporation. All assays were performed at Km for ATP.
Table 1. TAK1 enzymatic assay with imidazopyridine derivatives. ^a In-vitro enzymatic assay data obtained from Invitrogen^TM.

MDA-MB-231 cells = experiment: Caspase-3/7 assay (Apo-ONE); type: cell-based; details: 10 µM, presence of TNFα (10 ng/ml), 24 h, MDA-MB-231, positive control
Experimental: MDA-MB-231 cells were obtained from the Korean Cell Line Bank. Cells were cultured in Roswell Park Memorial Institute (RPMI) 1640 medium containing 10% foetal bovine serum and 1% penicillin/streptomycin at 37 °C with 5% CO2 under humidified atmosphere.
The assay was performed using Apo-ONE® Homogeneous Caspase-3/7 Assay kits (Catalogue No. G7790, Promega, Madison, WI). MDA-MB-231 cells in a concentration of 5000 cells/100 µl were seeded in each well of a black 96-well plate and starved after adhering to the plate. The cells were incubated for 24 h, and the serum-starved cells were treated with either Takinib or 13h in the presence or absence of TNFα (10 ng/ml). All samples and the control contained DMSO in a final concentration of 0.5%. After another 24 h of incubation, 100 µL of Apo-ONE® caspase-3/7 reagent was added to each well, and the cells were incubated at room temperature in darkness for 2 h. Fluorescence was then measured at 530 nm with excitation at 485 nm using a FlexStation 3 Multi-Mode microplate reader (Molecular Devices). Statistical analyses of the data included a one-way ANOVA, followed by Tukey’s multiple comparison test.

| TAK1 potency, SAR result in words (TAK1) | Compound | further results |
| --- | --- | --- |
| excellent | Cc1ccc(/C=C(\C#N)C(=O)N[C@@H]2CCN(c3c(Cl)cnc4[nH]c(-c5ccc(N6CCN(C)CC6)cc5)nc34)C2)nc1 [Compound 13j, (R,E)-N-(1–(6-chloro-2–(4-(4-methylpiperazin-1-yl)phenyl)-3H-imidazo[4,5-b]pyridin-7-yl)pyrrolidin-3-yl)-2-cyano-3-(5-methylpyridin-2-yl)acrylamide] | – |
| – | CCCn1/c(=N/C(=O)c2cccc(C(N)=O)c2)[nH]c2ccccc21 [Takinib, reference compound] | caspase-3/7 activity (MDA-MB-231 cells): significant caspase activation |
| increased | COc1ccc(/C=C(\C#N)C(=O)N[C@@H]2CCN(c3c(Cl)cnc4[nH]c(-c5ccc(N6CCN(C)CC6)cc5)nc34)C2)nc1 [Compound 13k, (R,E)-N-(1–(6-chloro-2–(4-(4-methylpiperazin-1-yl)phenyl)-3H-imidazo[4,5-b]pyridin-7-yl)pyrrolidin-3-yl)-2-cyano-3-(5-methoxypyridin-2-yl)acrylamide] | – |
| – | (R)-N-(1–(5-chloro-2-((4–(4-methylpiperazin-1-yl)phenyl)amino)pyrimidin-4-yl)pyrrolidin-3-yl)acrylamide [Compound 14] | IC50 relative to that of the pyrimidine (6) (TAK1; TAK1, compared with 6): approximately twice; IC50 (TAK1): 961 nM |
| – | C=CC(=O)N[C@@H]1CCN(c2nc(Nc3ccc(N4CCN(C)CC4)cc3)ncc2Cl)C1 [Compound 6] | IC50 (TAK1): 413 nM |
| maintained or improved potency | CN1CCN(c2ccc(-c3nc4c(N5CC[C@@H](NC(=O)/C(C#N)=C/c6cccc(F)n6)C5)c(Cl)cnc4[nH]3)cc2)CC1 [Compound 13f, (R,E)-N-(1-(6-chloro-2-(4-(4-methylpiperazin-1-yl)phenyl)-3H-imidazo[4,5-b]pyridin-7-yl)pyrrolidin-3-yl)-2-cyano-3–(6-fluoropyridin-2-yl)acrylamide] | – |
| increased | CN1CCN(c2ccc(-c3nc4c(N5CC[C@@H](NC(=O)/C(C#N)=C/c6cccc(C7CC7)n6)C5)c(Cl)cnc4[nH]3)cc2)CC1 [Compound 13i, (R,E)-N-(1–(6-chloro-2–(4-(4-methylpiperazin-1-yl)phenyl)-3H-imidazo[4,5-b]pyridin-7-yl)pyrrolidin-3-yl)-2-cyano-3-(6-cyclopropylpyridin-2-yl)acrylamide] | – |
| increased | CN1CCN(c2ccc(-c3nc4c(N5CC[C@@H](NC(=O)/C(C#N)=C/c6cccc(Cl)n6)C5)c(Cl)cnc4[nH]3)cc2)CC1 [Compound 13g, (R,E)-N-(1–(6-chloro-2–(4–(4-methylpiperazin-1-yl)phenyl)-3H-imidazo[4,5-b]pyridin-7-yl)pyrrolidin-3-yl)-3-(6-chloropyridin-2-yl)-2-cyanoacrylamide] | – |
| highest potency | Cc1csc(/C=C(\C#N)C(=O)N[C@@H]2CCN(c3c(Cl)cnc4[nH]c(-c5ccc(N6CCN(C)CC6)cc5)nc34)C2)n1 [Compound 13b, (R,E)-N-(1-(6-chloro-2-(4-(4-methylpiperazin-1-yl)phenyl)-3H-imidazo[4,5-b]pyridin-7-yl)pyrrolidin-3-yl)-2-cyano-3-(4-methylthiazol-2-yl)acrylamide] | – |
| – | CN1CCN(c2ccc(-c3nc4c(N5CC[C@@H](NC(=O)/C(C#N)=C/c6ccccc6)C5)c(Cl)cnc4[nH]3)cc2)CC1 [Compound 13a, (R,E)-N-(1-(6-chloro-2-(4-(4-methylpiperazin-1-yl)phenyl)-3H-imidazo[4,5-b]pyridin-7-yl)pyrrolidin-3-yl)-2-cyano-3-phenylacrylamide] | IC50 fold lower than the IC50 of 14 (TAK1; TAK1, compared with 14): ~2.5 fold; IC50 (TAK1): 385 nM |
| excellent | Cc1ccnc(/C=C(\C#N)C(=O)N[C@@H]2CCN(c3c(Cl)cnc4[nH]c(-c5ccc(N6CCN(C)CC6)cc5)nc34)C2)c1 [Compound 13l, (R,E)-N-(1-(6-chloro-2-(4-(4-methylpiperazin-1-yl)phenyl)-3H-imidazo[4,5-b]pyridin-7-yl)pyrrolidin-3-yl)-2-cyano-3–(4-methylpyridin-2-yl)acrylamide] | – |
